# Assays:
# [1] = system: MCF7 breast tumors; assay: FASTSPECT dynamic imaging of MCF7 tumor xenografts (MCF7/S and MCF7/D40 together); format: in vivo, SCID mice
# Method: Tumor cell lines used. MCF7/S: Cells are parental, drug (doxorubicin) sensitive, breast carcinoma cells. MCF7/D40: Cells were generated in vitro by successive culturing parental MCF7 cells in slowly increasing concentrations of doxorubicin with a total selection time of 31 months. Twenty-eight SCID mice were studied. MCF7/S or MCF7/D40 tumors were grown for 10-14 days after subcutaneous injection of 1×10^6 cells into the right thigh. Groups of mice with the xenografted tumors included: (MCF7/S group: MIBI: n=9; GLA: n=8) and (MCF7/D40 group: MIBI: n=6; GLA: n=5).
# The dynamic imaging system SPECT consisted of 24 small modular gamma cameras. Each modular camera consists of a 10 cm×10 cm NaI(Tl) scintillation crystal, 4 square (5 cm×5 cm) Hamamatsu photomultiplier tubes. The system included a cylindrical aperture with twenty four 1-mm diameter pinholes drilled in the aperture. A point source in the center of the field of view is projected simultaneously to the center of each camera. Total magnification is 3.5 in a 3.0 cm×3.2 cm×3.2 cm field of view. The spatial resolution of the system is about 1.0 mm, with a sensitivity of 13.3 cps/μCi.
# ^99mTc-GLA or ^99mTc-MIBI (5-8 mCi, 185-296 MBq) was injected via a jugular vein catheter. Dynamic images were acquired for 2 hours. Twenty-four projections were obtained, one from each camera. Each scintillation event within the camera's NaI crystal was registered as the digitized outputs from the camera's four photomultiplier tubes. The four photomultiplier outputs were compared to a 20-bit look-up table derived from a calibration procedure that involved moving a collimated source across the camera face.
# Tumor image reconstruction was performed using 100 iterations of the maximum-likelihood expectation-maximization (ML-EM) algorithm. Using SlicerDicer software, three-dimensional images were computed to provide images in a 33×49×49 voxels format, and generate tomographic transaxial, coronal and sagittal slices with one-pixel thickness (1.0 mm). Regions of interest (ROI) over the tumors were created and applied to the dynamic images for determining time-activity curves. The percent washout rate relative to the peak uptake of the tumors were calculated.
# [2] = system: plasmocytoma (localized myeloma); assay: Scintigraphy of a patient with plasmocytoma of T8; format: in vivo, human
# Method: A patient complaining of invalidation pain in the spine (mid-thorax) for about two months. Peak of monoclonal IgG-k in serum. Bence-Jones protein in urine. Spine CT. lytic lesion of T8, with soft tissue infiltration. […] Uptake was obvious in the early images, 15 and 30 min p.i., late acquisition, 6 hr p.i., made the tracer uptake much more obvious.
substance,measurement,setting,value
^99mTc-glucarate,time tumors remained detectable after injection,[1]; Example 3,at least 2 hrs
same,time to initial visualization of tumors after injection,"[1]; FASTSPECT imaging, all tumors of the glucarate groups, i.v.",≤ 5 min
same,time to unequivocal localization/visualization of tumors after injection,"[1]; FASTSPECT imaging, i.v.",10 to 30 min
same,time radioactive accumulation in the MCF7 tumors remained post-injection,[1]; dynamic images,at least 120 minutes
same,scan finding at diagnosis,"[2]; patient with lytic lesion of T8, posterior view",focally increase tracer uptake in the bone lesion and in soft tissue
same,scan finding after about 1 year of stabilization and external radiotherapy,[2]; posterior view,"normal physiologic tracer distribution, without areas of focally increased uptake"
